Laboratory results taken from PubChem BioAssay (NCI).
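Protocol summary: plate cells (96-well), add compound at 5 concentrations, incubate 48 h, interpolate endpoints linearly. At the GI50, growth is halved. At the TGI there is no net growth.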

Assays:
Test in all cases: inhibition of tumour cell growth, NCI panel, 48 h
MCF7 breast = test system: MCF7 breast
HT29 colon = test system: HT29 colon
SF-295 CNS = test system: SF-295 CNS
UO-31 renal = test system: UO-31 renal
MDA-MB-231 breast = test system: MDA-MB-231 breast
HOP-92 NSCLC = test system: HOP-92 NSCLC
UACC-62 melanoma = test system: UACC-62 melanoma
SN12C renal = test system: SN12C renal
786-0 renal = test system: 786-0 renal
COLO 205 colon = test system: COLO 205 colon
RPMI-8226 leukemia = test system: RPMI-8226 leukemia
NCI-H23 lung = test system: NCI-H23 lung
CCRF-CEM leukemia = test system: CCRF-CEM leukemia
MALME-3M melanoma = test system: MALME-3M melanoma
SNB-19 CNS = test system: SNB-19 CNS
LOX IMVI melanoma = test system: LOX IMVI melanoma
A549 NSCLC = test system: A549 NSCLC
DU-145 prostate = test system: DU-145 prostate
BT-549 breast = test system: BT-549 breast
OVCAR-4 ovarian = test system: OVCAR-4 ovarian
MOLT-4 leukemia = test system: MOLT-4 leukemia
KM12 colon = test system: KM12 colon
SF-539 CNS = test system: SF-539 CNS
TK-10 renal = test system: TK-10 renal
SK-MEL-5 melanoma = test system: SK-MEL-5 melanoma
NCI-H226 lung = test system: NCI-H226 lung
RXF 393 renal = test system: RXF 393 renal

Compound: COc1cc(C(=O)/C=C/c2c(C(F)(F)F)nc3sccn23)cc(OC)c1OC
- GI50 (MCF7 breast): 1.25 µM
- TGI (MCF7 breast): 3.33 µM
- GI50 (HT29 colon): 1.83 µM
- TGI (HT29 colon): 4.08 µM
- GI50 (SF-295 CNS): 2.58 µM
- TGI (SF-295 CNS): 7.86 µM
- GI50 (UO-31 renal): 1.87 µM
- TGI (UO-31 renal): 3.71 µM
- GI50 (MDA-MB-231 breast): 2.92 µM
- TGI (MDA-MB-231 breast): 9.84 µM
- GI50 (HOP-92 NSCLC): 7 µM
- TGI (HOP-92 NSCLC): 22.4 µM
- GI50 (UACC-62 melanoma): 1.52 µM
- TGI (UACC-62 melanoma): 2.95 µM
- GI50 (SN12C renal): 1.56 µM
- TGI (SN12C renal): 3.69 µM
- GI50 (786-0 renal): 1.76 µM
- TGI (786-0 renal): 3.16 µM
- GI50 (COLO 205 colon): 1.94 µM
- TGI (COLO 205 colon): 3.44 µM
- GI50 (RPMI-8226 leukemia): 1.08 µM
- TGI (RPMI-8226 leukemia): 4.53 µM
- GI50 (NCI-H23 lung): 1.72 µM
- TGI (NCI-H23 lung): 3.89 µM
- GI50 (CCRF-CEM leukemia): 1.24 µM
- TGI (CCRF-CEM leukemia): 8.34 µM
- GI50 (MALME-3M melanoma): 1.59 µM
- TGI (MALME-3M melanoma): 3.67 µM
- GI50 (SNB-19 CNS): 2.67 µM
- TGI (SNB-19 CNS): 10.2 µM
- GI50 (LOX IMVI melanoma): 1.36 µM
- TGI (LOX IMVI melanoma): 2.89 µM
- GI50 (A549 NSCLC): 3.44 µM
- TGI (A549 NSCLC): 18 µM
- GI50 (DU-145 prostate): 1.41 µM
- TGI (DU-145 prostate): 2.86 µM
- GI50 (BT-549 breast): 2.26 µM
- TGI (BT-549 breast): 6.87 µM
- GI50 (OVCAR-4 ovarian): 3.05 µM
- TGI (OVCAR-4 ovarian): 17.6 µM
- GI50 (MOLT-4 leukemia): 1.92 µM
- TGI (MOLT-4 leukemia): 5.81 µM
- GI50 (KM12 colon): 1.47 µM
- TGI (KM12 colon): 2.97 µM
- GI50 (SF-539 CNS): 1.55 µM
- TGI (SF-539 CNS): 2.96 µM
- GI50 (TK-10 renal): 2.3 µM
- TGI (TK-10 renal): 5.12 µM
- GI50 (SK-MEL-5 melanoma): 1.59 µM
- TGI (SK-MEL-5 melanoma): 2.96 µM
- GI50 (NCI-H226 lung): 2.17 µM
- TGI (NCI-H226 lung): 5.54 µM
- GI50 (RXF 393 renal): 2.02 µM
- TGI (RXF 393 renal): 4.24 µM
